Test results reported in patent US7763615B2, “Ecteinascidin analogs for use as antitumour agents” (priority 2001, dated 2010).
Read-outs that look alike come from different tables or passages of the source.

How the values were obtained:
[1] = tested on: NRK-52E, normal rat kidney cells; details: 24 h
[2] = tested on: L8, normal rat skeletal muscle cells; details: 24 h
[3] = tested on: AML-12, normal mouse liver cells; details: 24 h
[4] = tested on: FDC-P1, normal mouse myelogeous stem cells; details: 24 h
[5] = tested on: SK-OV3; assay: Inhibition of cells growth by colorimetric assay (SRB), SK-OV3; type: cell-based; details: SK-OV3, 48 hours exposure, SRB; for CC50: read-out: LC50
Source text: (§1) The finality of these assays is to interrupt the growth of a “in vitro” tumor cell culture by means of a continued exhibition of the cells to the sample to be testing.
(§2) A colorimetric type of assay, using sulphorhodamine B (SRB) reaction has been adapted for a quantitative measurement of cell growth and viability [following the technique described by Philip Skehan, et al. (1990), New colorimetric cytotoxicity assay for anticancer drug screening, J. Natl. Cancer Inst., 82:1107-1112]
(§3) This form of the assay employs 96 well cell culture microplates of 9 mm diameter (Faircloth, 1988; Mosmann, 1983). Most of the cell lines are obtained from American Type Culture Collection (ATCC) derived from different human cancer types.
(§4) Cells are maintained in RPMI 1640 10% FBS, supplemented with 0.1 g/l penicillin and 0.1 g/l streptomycin sulphate and then incubated at 37° C., 5% CO2 and 98% humidity. For the experiments, cells were harvested from subconfluent cultures using trypsin and resuspended in fresh medium before plating.
(§5) Cells are seeded in 96 well microtiter plates, at 5×10^3 cells per well in aliquots of 195 μl medium, and they are allowed to attach to the plate surface by growing in drug free medium for 18 hours. Afterward, samples are added in aliquots of 5 μl in a ranging from 10 to 10^−8 μg/ml, dissolved in DMSO/EtOH/PBS (0.5:0.5:99). After 48 hours exposure, the antitumor effect are measured by the SRB methodology: cells are fixed by adding 50 μl of cold 50% (wt/vol) trichloroacetic acid (TCA) and incubating for 60 minutes at 4° C. Plates are washed with deionized water and dried. One hundred μl of SRB solution (0.4% wt/vol in 1% acetic acid) is added to each microtiter well and incubated for 10 minutes at room temperature. Unbound SRB is removed by washing with 1% acetic acid. Plates are air dried and bound stain is solubilized with Tris buffer. Optical densities are read on a automated spectrophotometric plate reader at a single wavelength of 490 nm.
(§6) The values for mean+/− SD of data from triplicate wells are calculated. Some parameters for cellular responses can be calculated: GI=growth inhibition, TGI=total growth inhibition (cytostatic effect) and LC=cell killing (cytotoxic effect).

[6] = tested on: LOVO-DOX; assay: cells; type: cell-based; details: LOVO-DOX, 48 hours exposure, SRB; for CC50: read-out: LC50
Source text: as §1, §2, §3, §4, §5, §6

[7] = tested on: IGROV; assay: cells; type: cell-based; details: for GI50 / TGI: 48 hours exposure, SRB; for CC50: read-out: LC50, 48 hours exposure, SRB
Source text: as §1, §2, §3, §4, §5, §6

[8] = tested on: DU145; assay: cells; type: cell-based; details: for CC50: read-out: LC50
Source text: as §1, §2, §3, §4, §5, §6

[9] = tested on: HT29; assay: cells; type: cell-based
Source text: as §1, §2, §3, §4, §5, §6

[10] = tested on: A549; assay: cells; type: cell-based; details: for GI50: read-out: GI50
Source text: as §1, §2, §3, §4, §5, §6

[11] = tested on: IGROV-ET; assay: cells; type: cell-based; details: IGROV-ET, 48 hours exposure, SRB; for CC50: read-out: LC50
Source text: as §1, §2, §3, §4, §5, §6

[12] = tested on: SK-BR3; assay: cells; type: cell-based; details: SK-BR3, 48 hours exposure, SRB; for CC50: read-out: LC50
Source text: as §1, §2, §3, §4, §5, §6

[13] = tested on: K562; assay: cells; type: cell-based
Source text: as §1, §2, §3, §4, §5, §6

[14] = tested on: MEL-28; assay: cells; type: cell-based
Source text: as §1, §2, §3, §4, §5, §6

[15] = tested on: LOVO; assay: cells; type: cell-based; details: LOVO, 48 hours exposure, SRB; for CC50: read-out: LC50
Source text: as §1, §2, §3, §4, §5, §6

[16] = tested on: LNCAP; assay: cells; type: cell-based; details: LNCAP, 48 hours exposure, SRB; for CC50: read-out: LC50
Source text: as §1, §2, §3, §4, §5, §6

[17] = tested on: PANC-1; assay: cells; type: cell-based; details: PANC-1, 48 hours exposure, SRB; for CC50: read-out: LC50
Source text: as §1, §2, §3, §4, §5, §6

[18] = tested on: H-MEC-1; assay: Inhibition of cells growth by colorimetric assay (SRB), H-MEC-1; type: cell-based; details: H-MEC-1, 48 hours exposure, SRB; for CC50: read-out: LC50
Source text: as §1, §2, §3, §4, §5, §6

[19] = tested on: A498; assay: cells; type: cell-based; details: Homo sapiens
Source text: as §1, §2, §3, §4, §5, §6

[20] = tested on: MCF; assay: cells; type: cell-based; details: Homo sapiens
Source text: as §1, §2, §3, §4, §5, §6

[21] = tested on: SW-620; assay: cells; type: cell-based; details: Homo sapiens
Source text: as §1, §2, §3, §4, §5, §6

[22] = tested on: MB231; assay: cells; type: cell-based; details: Homo sapiens
Source text: as §1, §2, §3, §4, §5, §6

[23] = Homo sapiens, HT-29, 48 h, read-out: LC50, HT29, 48 hours exposure, SRB
[24] = read-out: LC50, A549, 48 hours exposure, SRB
[25] = Homo sapiens, SK-MEL-28, 48 h, MEL-28, 48 hours exposure, SRB
[26] = Homo sapiens, DU-145, 48 h, DU145, 48 hours exposure, SRB
[27] = Homo sapiens, HT-29, 48 h, HT29, 48 hours exposure, SRB

COc1c(C)cc2c(c1O)[C@@H]1C3[C@@H]4SC[C@]5(C(=O)COC[C@@H](c6c7c(c(C)c(OC(C)=O)c64)OCO7)N3[C@@H](O)[C@H](C2)N1C)c1[nH]c2ccccc2c1CCN5C (some centres unmarked) [Compound 39]
Kidney [1]: 9.88E−05 | Skeletal [2]: 4.58E−07 | Liver [3]: 1.14E−06 | Myelo [4]: 4.10E−07 | GI50 [5]: 62.4 nM | TGI [5]: 3.19E−07 Molar | CC50 [5]: 13000 nM | GI50 [6]: 234 nM | TGI [6]: 9.94E−07 Molar | CC50 [6]: 13000 nM | GI50 [7]: 43 nM | TGI [7]: 8.15E−08 Molar | CC50 [7]: 2320 nM | GI50 ([8]; DU145, 48 hours exposure, SRB): 55.9 nM | TGI ([8]; DU145, 48 hours exposure, SRB): 2.03E−06 Molar | CC50 ([8]; DU145, 48 hours exposure, SRB): 13000 nM | GI50 ([9]; HT29, 48 hours exposure, SRB): 48.5 nM | TGI ([9]; HT29, 48 hours exposure, SRB): 1.73E−05 Molar | CC50 [9, 23]: 13000 nM | TGI ([10]; A549, 48 hours exposure, SRB): 8.74E−08 Molar | GI50 ([10]; A549, 48 hours exposure, SRB): 46.7 nM | CC50 [10, 24]: 2320 nM | GI50 [11]: 82.5 nM | TGI [11]: 4.04E−06 Molar | CC50 [11]: 13000 nM | GI50 [12]: 49.9 nM | TGI [12]: 1.10E−07 Molar | CC50 [12]: 944 nM | CC50 ([13]; Homo sapiens, K562, 48 h, read-out: LC50, K562, 48 hours exposure, SRB): 79.2 nM | GI50 ([13]; K562, 48 hours exposure, SRB): 25.1 nM | TGI ([13]; K562, 48 hours exposure, SRB): 4.46E−08 Molar | GI50 [14, 25]: 34.7 nM | IC (TGI) [14, 25]: 69.1 nM | CC50 ([14]; Homo sapiens, SK-MEL-28, 48 h, read-out: LC50, MEL-28, 48 hours exposure, SRB): 181 nM | GI50 [15]: 32.1 nM | TGI [15]: 6.22E−08 Molar | CC50 [15]: 120 nM | GI50 [16]: 20.5 nM | TGI [16]: 4.41E−08 Molar | CC50 [16]: 94.7 nM | GI50 [17]: 60.1 nM | TGI [17]: 9.22E−07 Molar | CC50 [17]: 13000 nM | GI50 [18]: 58.1 nM | TGI [18]: 1.46E−06 Molar | CC50 [18]: 13000 nM

COc1c(C)cc2c(c1O)[C@@H]1C3[C@@H]4SC[C@]5(C(=O)COC[C@@H](c6c7c(c(C)c(OC(C)=O)c64)OCO7)N3[C@@H](O)[C@H](C2)N1C)c1[nH]c2ccccc2c1CCN5C (some centres unmarked) [Compound 40]
Kidney [1]: 2.95E−08 | Skeletal [2]: 2.11E−07 | Liver [3]: 3.86E−08 | Myelo [4]: 4.08E−08 | GI50 [5]: 2.9 nM | TGI [5]: 6.28E−09 Molar | CC50 [5]: 13 nM | GI50 [6]: 30.4 nM | TGI [6]: 9.12E−08 Molar | CC50 [6]: 551 nM | GI50 [7]: 1.96 nM | TGI [7]: 4.17E−09 Molar | CC50 [7]: 8.86 nM | GI50 ([8]; DU145, 48 hours exposure, SRB): 2.35 nM | TGI ([8]; DU145, 48 hours exposure, SRB): 6.41E−09 Molar | CC50 ([8]; DU145, 48 hours exposure, SRB): 2450 nM | GI50 ([9]; HT29, 48 hours exposure, SRB): 3.26 nM | TGI ([9]; HT29, 48 hours exposure, SRB): 1.06E−08 Molar | CC50 ([9]; read-out: LC50, HT29, 48 hours exposure, SRB): 13000 nM | TGI ([10]; A549, 48 hours exposure, SRB): 4.11E−09 Molar | GI50 ([10]; A549, 48 hours exposure, SRB): 2.41 nM | CC50 [10, 24]: 7.02 nM | GI50 [11]: 2.42 nM | TGI [11]: 8.66E−09 Molar | CC50 [11]: 4800 nM | GI50 [12]: 2.56 nM | TGI [12]: 6.50E−09 Molar | CC50 [12]: 28 nM | GI50 ([13]; K562, 48 hours exposure, SRB): 0.843 nM | TGI ([13]; K562, 48 hours exposure, SRB): 6.87E−09 Molar | CC50 ([13]; read-out: LC50, K562, 48 hours exposure, SRB): 80 nM | GI50 ([14]; MEL-28, 48 hours exposure, SRB): 19.6 nM | TGI ([14]; MEL-28, 48 hours exposure, SRB): 4.70E−08 Molar | CC50 ([14]; read-out: LC50, MEL-28, 48 hours exposure, SRB): 112 nM | GI50 [15]: 2.51 nM | TGI [15]: 5.98E−09 Molar | CC50 [15]: 23.8 nM | GI50 [16]: 1.02 nM | TGI [16]: 2.48E−09 Molar | CC50 [16]: 5.88 nM | GI50 [17]: 2.82 nM | TGI [17]: 7.17E−09 Molar | CC50 [17]: 128 nM | GI50 [18]: 2.45 nM | TGI [18]: 5.31E−09 Molar | CC50 [18]: 11.5 nM

COc1c(C)cc2c(c1O)[C@@H]1C3[C@@H]4SC[C@]5(NCCc6c5[nH]c5ccccc65)C(=O)COC[C@@H](c5c6c(c(C)c(OC(=O)C(F)(F)C(F)(F)C(F)(F)F)c54)OCO6)N3[C@@H](O)[C@H](C2)N1C (some centres unmarked) [Compound 62]
GI50 [8, 26]: 2.2 nM | IC (TGI) [8, 26]: 4.4 nM | CC50 ([8]; Homo sapiens, DU-145, 48 h): 9.9 nM | GI50 [9, 27]: 11 nM | IC (TGI) [9, 27]: 66 nM | CC50 [9, 23]: 99 nM | CC50 ([19]; A498, 48 h, read-out: LC50): 11 nM | GI50 ([19]; A498, 48 hours exposure, SRB): 3.3 nM | IC (TGI) ([19]; A498, 48 hours exposure, SRB): 4.4 nM | CC50 ([20]; 48 h, read-out: LC50): 110 nM | GI50 ([20]; MCF, 48 hours exposure, SRB): 2.2 nM | IC (TGI) ([20]; MCF, 48 hours exposure, SRB, read-out: TGI): 9.9 nM | GI50 ([10]; Homo sapiens, A549, 48 h, A549, 48 hours exposure, SRB): 8.8 nM | IC (TGI) ([10]; Homo sapiens, A549, 48 h, A549, 48 hours exposure, SRB, read-out: TGI): 33 nM | CC50 ([10]; Homo sapiens, A549, 48 h, read-out: LC50, A549, 48 hours exposure, SRB): 77 nM | GI50 [14, 25]: 3.3 nM | IC (TGI) [14, 25]: 1.1 nM | CC50 ([14]; Homo sapiens, SK-MEL-28, 48 h, read-out: LC50): 33 nM | CC50 ([21]; SW-620, 48 h, read-out: LC50): 110 nM | IC (TGI) ([21]; SW-620, 48 hours exposure, SRB): 55 nM | GI50 ([21]; SW-620, 48 hours exposure, SRB, read-out: GI50): 22 nM | CC50 ([22]; 48 h, read-out: LC50): 33 nM | GI50 ([22]; MB231, 48 hours exposure, SRB): 1.1 nM | IC (TGI) ([22]; MB231, 48 hours exposure, SRB, read-out: TGI): 5.5 nM
